Patent US12564631B2, “Phytosphingosine derivatives as adjuvants in immune stimulation” (Helmholtz-Zentrum für Infektionsforschung GmbH, priority 2020, dated 2026)
Entries after “also recorded” stand apart in the source; their conditions may differ.

Legend:
CD4+ T cells = experiment: CFSE proliferation assay of CD4+ T cells after interaction with Ova/adjuvant-matured bone marrow derived DCs (APC); assay type: cell-based, mice; conditions: for capacity to induce antigen specific CD4+ T cell proliferation: DCs restimulated with Ovalbumin + 10 μg compound for 24 h, interaction with APC for 5 days; for stimulating effect of CD4+ T cells versus controls with only antigen Ova: CFSE loss up to 7 days, DCs activated with Ova + 10 μg compound, FIG. 4A/4B
Excerpt: FIG. 3B: Cell proliferation tracked by CFSE dilution of CD4+ T cells after interaction with matured Antigen Presenting Cells (APC). With every cell division, the CFSE signal strength is approximately halved. The shown cell numbers indicate the ratio of proliferated live CD4+ T cells.
(§1) FIG. 4: Effect after treatment with IPB 0964-1917—Cell proliferation tracked by CFSE loss of T cells after interaction with matured Antigen Presenting Cells (APC). With every cell division, the CFSE signal strength is reduced. The shown cell numbers indicate the ratio of proliferating T and B cells (7 steps are shown). (A) Numbers of CD4+ T cells are shown at different proliferation steps up to 7 days measuring the loss of CFSE. Naïve cells were treated with one of IPB1901-1912 together with DCs activated with Ova prior to the CFSE assay. (B) Numbers of CD4+ T cells are shown at different proliferation steps up to 7 days measuring the loss of CFSE. Naïve cells were treated with one of IPB2033-2044 together with DCs activated with Ova prior to the CFSE assay. (C) Numbers of CD8+ T cells are shown at different proliferation steps up to 7 days measuring the loss of CFSE. Naïve cells were treated with one of IPB1901-1912 together with DCs activated with Ova prior to the CFSE assay. (D) Numbers of CD8+ T cells are shown at different proliferation steps up to 7 days measuring the loss of CFSE. Naïve cells were treated with one of IPB2033-2044 together with DCs activated with Ova prior to the CFSE assay.
(§2) In order to assess the properties of the inventive compounds in antigen-specific T and B cell stimulation, the compounds were administered to cultured bone marrow cells in a CFSE assay.
(§3) Briefly, femurs and Tibiae of female 4-12 weeks old C57Bl6 (or BALB/c for TCR HA) were removed and purified from the surrounding muscle tissue (Kleenex tissues). Intact Bones were left in 70% ethanol for 2-5 min for disinfection. Both ends were cut with scissors and the bone marrow were flushed with PBS using a syringe with a 0.45 mm diameter needle, clusters were disintegrated by vigorous pipetting.
(§4) In order to obtain activated antigen presenting dendritic cells (DCs), bone marrow cells were cultured with GM-CSF. On Day 0, cells were seeded in a concentration of 2×10^6 cells per 100 mm dish (bacteriological petri dishes) in 10 ml RPMI-10 (100 U Pen/100 μg Strept/2 mM Glutamin/50 μm ß-Mercaptoethanol/10% FCS heat-inactivated and filtered 0.22 μm Filter) containing 200 Units GM-CSF. On Day 3 another 10 ml RPMI-10 containing 200 U GM-CSF were added to the plates. On Day 6 half of the culture supernatants (10 ml) were collected, centrifuged and the cell pellet resuspended in 10 ml fresh RPMI-10/200 U GM-CSF and given back into the original plates.
(§5) Subsequently, the DCs were incubated with Ovalbumin (as antigen) alone or co-administered with known adjuvants, such as α-GalCerMPEG, aßGalCerMPEG or TLR2/6 ligand (BPPcysMPEG), or the novel phytosphingosine derivatives of the present invention. The activation of DCs was controlled by FACS analysis of different CD markers, such as CD40, CD54, CD80, CD86, CD83, MHCI and MHCII.
(§6) The effect of the compounds of the present invention was then ascertained via co-incubation of naïve T or B cells, obtained from mice (OTI or OTII mice) with previous exposure to the Ova antigen, with DCs that had been treated with the compounds of the invention.
(§7) Naïve T cells were derived from LN/spleen from OTI or OTII mice. The MagniSort™ Mouse CD4 naïve or CD8 naïve T cell Enrichment Kit is designed for the magnetic separation of CD4 or CD8 naïve T cells by negative selection from mouse spleens or lymph nodes utilizing a biotinylated antibody cocktail and streptavidin-coated magnetic beads. Undesired cells are bound by antibody (Anti-Mouse CD8 or CD4/CD11b CD19/CD24/CD44/CD45R(B220)/CD49b(Integrin α 2)/Ly-6G (Gr-1)/γδ TCR/TER-119) and then magnetic beads that, when placed in a magnetic field, leave CD4 or CD8 naïve T cells untouched and free in solution. […]

CD8+ T cells = experiment: CFSE proliferation assay of CD8+ T cells after interaction with Ova/adjuvant-matured bone marrow derived DCs (APC); assay type: cell-based, mice; conditions: for effect to induce antigen specific CD8+ T cell proliferation: DCs restimulated with Ovalbumin + 10 μg compound for 24 h, interaction with APC for 5 days, FIG. 3C; for stimulating effect of CD8+ T cells versus controls with only antigen Ova: CFSE loss up to 7 days, DCs activated with Ova + 10 μg compound, FIG. 4C/4D
Excerpt: FIG. 3C: Cell proliferation tracked by CFSE dilution of CD8+ T cells after interaction with matured Antigen Presenting Cells (APC). With every cell division, the CFSE signal strength is approximately halved. The shown cell numbers indicate the ratio of proliferated live CD8+ T cells
as §1, §2, §3, §4, §5, §6, §7

splenocytes = experiment: Unspecific proliferation assay of splenocytes ([3H]thymidine incorporation); assay type: cell-based, mice; conditions: for Stimulation index (SI): splenocytes restimulated 96 h with 1, 10 and 20 μg/ml compound, ratio of [3H]-thymidine uptake of stimulated versus non-stimulated samples, FIG. 2E/2F; for induction of unspecific proliferation in splenocytes: summary statement
Method: FIG. 2: Analysis of unspecific proliferative responses of murine cells stimulated without or with enhanced concentrations of the Phytosphingosine-compounds. Splenocytes from mice were re-stimulated for 96 h with different concentrations of adjuvant (1, 10 and 20 μg/ml). The results are presented by are expressed (A-C) as counts per minute (cpm) and (D-F) stimulation index (SI) being the ratio of [^3H]-thymidine uptake of stimulated versus non-stimulated samples. (A) and (D) show data for α-GalCer controls, (B) and (E) show data for IPB1901-1910, and (C) and (F) show data for IPB1911-1917.
In order to assess the properties of the inventive compounds in antigen-unspecific immune response stimulation the compounds were administered to splenocytes in an established proliferation assay.
For the proliferation assay, splenocytes (5×10^6 cells/ml) are seeded at 100 μl per well in a U-bottomed 96-well microtiter plate (Sarstedt Inc., Newton, N.C.) and cultured in quadruplicates 4 days in the presence of enhanced concentrations of adjuvant (1, 10 and 20 μg/ml)), 5 μg/ml of Concanavalin A (max); or medium alone. Eighteen hours before harvesting, 1 μCi of [3H]thymidine (Amersham International, Freiburg, Germany) is added to each well. Cells are harvested on paper filters (Filtermat A; Wallac, Freiburg, Germany) using a cell harvester (Inotech, Wohlen, Switzerland) and the incorporation of [3H] thymidine into the DNA of proliferating cells is determined using a scintillation counter (Wallac 1450, Micro-Trilux).

CD19+ B cells = experiment: CFSE proliferation assay of CD19+ B cells after interaction with Ova/adjuvant-matured bone marrow derived DCs (APC); assay type: cell-based, mice; conditions: FIG. 3A; for toxicity against B cells: effect not comparable to adjuvant controls; for capacity to induce antigen specific CD19+ B cell proliferation: DCs restimulated with Ovalbumin + 10 μg compound for 24 h, interaction with APC for 5 days
Method: FIG. 3A: Cell proliferation tracked by CFSE dilution of B cells after interaction with matured Antigen Presenting Cells (APC). With every cell division, the CFSE signal strength is approximately halved. The observed cell numbers indicate the ratio of proliferating viable CD19+ B cells.
as §2, §3, §4, §5, §6
CFSE staining of the CD4+ or CD8+ naïve T cells is then carried out according to standard procedures. Subsequently, 2-5×10^4 DCs (as mature antigen presenting cells APCs) are incubated with 4×10^5 CFSE+ T cells (OTI or OTII) per well (ratio DC/T cells is […]). A CFSE proliferation assay is then conducted, using on Day +5 or on Day +7 a FACS analysis (CFSE/LD/CD4/CD8/CD19/Thy1.1), providing a cell count for the desired cell type based on CFSE. With every cell division, the CFSE signal strength is approximately halved. The cells marked with CFSE can therefore be used to determine the proliferation of CD19+ B cells, CD4+ or CD8+ T cells in response to treatment with activated DCs, that were treated with or without the compounds of the invention.
As is shown in FIG. 3A, cell proliferation of B cells is tracked by CFSE dilution after interaction with APCs. With every cell division, the CFSE signal strength is approximately halved. Therefore, the compounds of the invention show an effect on inducing antigen specific CD19+ cell proliferation.
On day −1, mature DCs were restimulated with Ovalbumin (antigen) co-administered with 10 μg of the different novel phytosphingosine derivatives (0964-1917) or with positive controls (α-GalCerMPEG, aßGalCerMPEG, CDA or BPPcysPEGdef) for 24 h.

[1] = system: Th1-type / Th2-type response; conditions: literature cited in background; cited from earlier work

## CCCCCCCCCCCCCCCCCCCCCCCC(=O)N(CC(=O)NCCC(=O)O)[C@@H](CO[C@H]1OC(CO)[C@H](O)C(O)C1O)[C@H](O)[C@H](O)CCCCCCCCCCCCCC (stereo partly drawn) [IPB 1910]
CD4+ T cells; FIG. 3B
  capacity to induce antigen specific CD4+ T cell proliferation: high capacity; also recorded: beneficial capacity
CD8+ T cells
  effect to induce antigen specific CD8+ T cell proliferation: strong effect; also recorded: beneficial effect
splenocytes
  Stimulation index (SI): ca. 2
  induction of unspecific proliferation in splenocytes: beneficial induction of unspecific proliferation

## CCCCCCCCCCCCCCCCCCCCCCCC(=O)N(CC(=O)NCC(OC)OC)[C@@H](CO[C@H]1OC(CO)[C@H](O)C(O)C1O)[C@H](O)[C@H](O)CCCCCCCCCCCCCC (stereo partly drawn) [IPB 1911]
CD4+ T cells; FIG. 3B
  capacity to induce antigen specific CD4+ T cell proliferation: high capacity; also recorded: beneficial capacity
CD8+ T cells
  effect to induce antigen specific CD8+ T cell proliferation: strong effect; also recorded: beneficial effect
splenocytes
  induction of unspecific proliferation in splenocytes: beneficial induction of unspecific proliferation

## CCCCCCCCCCCCCC[C@@H](O)[C@@H](O)[C@H](CO[C@H]1OC(CO)[C@H](O)C(O)C1O)N(CC(=O)NCCCCCCCCCCCC)C(=O)CCCCCCCCCCCCC (stereo partly drawn) [IPB 1901]
CD4+ T cells
  stimulating effect of CD4+ T cells versus controls with only antigen Ova: stimulating effect of CD4+ T cells beyond controls
CD19+ B cells
  toxicity against B cells: may show some toxicity against B cells
CD8+ T cells
  stimulating effect of CD8+ T cells versus controls with only antigen Ova: stimulating effect of CD8+ T cells beyond controls
splenocytes
  Stimulation index (SI): 4
  induction of unspecific proliferation in splenocytes: beneficial induction of unspecific proliferation

## CCCCCCCCCCCCCCNC(=O)CN(C(=O)[C@@H](Cc1ccccc1)NC(C)=O)[C@@H](CO[C@H]1OC(CO)[C@H](O)C(O)C1O)[C@H](O)[C@H](O)CCCCCCCCCCCCCC (stereo partly drawn) [IPB 1904]
CD19+ B cells
  capacity to induce antigen specific CD19+ B cell proliferation: particularly high capacity; also recorded: beneficial capacity
splenocytes
  induction of unspecific proliferation in splenocytes: beneficial induction of unspecific proliferation

## CCCCCCCCCCCCCCCCCC(=O)N(CC(=O)NCCC(=O)OC(C)(C)C)[C@@H](CO[C@H]1OC(CO)[C@H](O)C(O)C1O)[C@H](O)[C@H](O)CCCCCCCCCCCCCC (stereo partly drawn) [IPB 1909]
CD4+ T cells; FIG. 3B
  capacity to induce antigen specific CD4+ T cell proliferation: high capacity; also recorded: beneficial capacity
CD19+ B cells
  capacity to induce antigen specific CD19+ B cell proliferation: particularly high capacity; also recorded: beneficial capacity
CD8+ T cells
  effect to induce antigen specific CD8+ T cell proliferation: strong effect; also recorded: beneficial effect

## CCCCCCCCCCCCCC[C@@H](O)[C@@H](O)[C@H](CO[C@H]1O[C@H](CO)[C@H](O)[C@H](O)[C@H]1O)NC(=O)CCCCCCCCCCc1ccc(F)cc1 [7DW8-5]
[1]
  type of response elicited (Th1 / Th2): elicit a Th1 response

## CCCCCCCCCCCCCC[C@@H](O)[C@@H](O)[C@H](CO[C@H]1OC(CO)[C@H](O)C(O)C1O)N(CC(=O)NC1CCCCC1)C(=O)CCCCCCCCCCC (stereo partly drawn) [IPB 1903]
CD4+ T cells
  stimulating effect of CD4+ T cells versus controls with only antigen Ova: stimulating effect of CD4+ T cells beyond controls
CD4+ T cells; FIG. 3B
  capacity to induce antigen specific CD4+ T cell proliferation: high capacity; also recorded: beneficial capacity
CD19+ B cells
  toxicity against B cells: may show some toxicity against B cells
CD8+ T cells
  stimulating effect of CD8+ T cells versus controls with only antigen Ova: stimulating effect of CD8+ T cells beyond controls
splenocytes
  Stimulation index (SI): > 10
  induction of unspecific proliferation in splenocytes: beneficial induction of unspecific proliferation

## CCCCCCCCCCCCCC[C@@H](O)[C@@H](O)[C@H](CO[C@H]1OC(CO)[C@H](O)C(O)C1O)N(CC(=O)NCc1ccccc1)C(=O)CCCCCCC (stereo partly drawn) [IPB 1902]
CD4+ T cells
  stimulating effect of CD4+ T cells versus controls with only antigen Ova: stimulating effect of CD4+ T cells beyond controls
CD4+ T cells; FIG. 3B, no improved effect over adjuvant controls
  toxicity against CD4+ T cells: may show some toxicity against CD4+ T cells
CD19+ B cells
  toxicity against B cells: may show some toxicity against B cells
CD8+ T cells
  stimulating effect of CD8+ T cells versus controls with only antigen Ova: stimulating effect of CD8+ T cells beyond controls
splenocytes
  induction of unspecific proliferation in splenocytes: beneficial induction of unspecific proliferation

## CCCCCCCCCCCCCCCCCCCCCCCC(=O)N[C@@H](CO[C@H]1O[C@H](CO)[C@H](O)[C@H](O)[C@H]1O)[C@H](O)[C@H](O)CCCCC [OCH]
[1]
  type of response elicited (Th1 / Th2): elicit a Th2-type response
